molecular target: T1, vanilloid receptor 1 (VR1/TRPV1 receptor) (Homo sapiens, UniProt Q8NER1); assay: VR1/TRPV1 receptor affinity, capsaicin stimulus (human); format: cell-based, human being; set-up: key to (f) Ki (human being) [nM] Cap: result in words: AG=agonist; pAG=partial agonist; NE=no effect; conditions: @ 5 μM, Tables 8-12, read-out: (f) Ki (human being) [nM] Cap: inhibition (as a percentage)
T1 construct: expressed in transfected cells; host or cells: CHO K1 cells (ECACC), stably transfected
T1 sequence (Q8NER1 whole entry): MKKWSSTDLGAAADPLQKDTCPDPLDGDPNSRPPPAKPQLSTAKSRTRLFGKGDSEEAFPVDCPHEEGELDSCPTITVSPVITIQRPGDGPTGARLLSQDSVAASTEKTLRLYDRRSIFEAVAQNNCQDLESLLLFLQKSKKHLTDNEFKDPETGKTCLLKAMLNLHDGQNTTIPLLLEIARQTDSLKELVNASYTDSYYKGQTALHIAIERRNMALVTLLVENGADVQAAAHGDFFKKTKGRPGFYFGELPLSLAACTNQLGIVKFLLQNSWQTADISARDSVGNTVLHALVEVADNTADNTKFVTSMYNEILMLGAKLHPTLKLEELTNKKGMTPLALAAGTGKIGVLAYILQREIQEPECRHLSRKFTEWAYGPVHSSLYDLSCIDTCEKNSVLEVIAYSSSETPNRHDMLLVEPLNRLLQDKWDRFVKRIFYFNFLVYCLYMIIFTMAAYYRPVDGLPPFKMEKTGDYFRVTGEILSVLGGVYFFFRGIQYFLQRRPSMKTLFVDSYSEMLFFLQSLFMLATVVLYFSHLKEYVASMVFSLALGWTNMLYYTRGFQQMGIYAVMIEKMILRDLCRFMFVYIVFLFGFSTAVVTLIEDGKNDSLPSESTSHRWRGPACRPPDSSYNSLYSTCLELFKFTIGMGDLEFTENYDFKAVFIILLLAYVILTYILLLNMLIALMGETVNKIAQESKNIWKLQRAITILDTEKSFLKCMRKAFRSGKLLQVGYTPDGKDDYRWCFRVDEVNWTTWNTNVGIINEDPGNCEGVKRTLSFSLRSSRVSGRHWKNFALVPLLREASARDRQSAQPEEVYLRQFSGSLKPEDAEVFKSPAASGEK

Row | inhibition at 5 µM [%] | Structure (SMILES)
1 | 36 | CC(C(=O)NCc1cc(C(F)(F)F)nn1-c1cccc(Cl)c1)c1ccc(CN(C)C)c(F)c1 (stereo not shown) [Example B65, N-[[2-(3-Chlorophenyl)-5-(trifluoromethyl)-2H-pyrazol-3-yl]-methyl]-2-[4-(dimethylaminomethyl)-3-fluoro-phenyl]-propionamide]

same assay, conditions: Tables 8-12

Row | (f) Ki (human being) [nM] Cap: result in words | Structure (SMILES)
2 | AG | CC(=O)NCc1ccc(C(C)C(=O)NCc2cc(C(C)(C)C)nn2-c2cccc(Cl)c2)cc1F (stereo not shown) [Example B67, 2-[4-(Acetylamino-methyl)-3-fluoro-phenyl]-N-[[5-tert-butyl-2-(3-chlorophenyl)-2H-pyrazol-3-yl]-methyl]-propionamide]

same assay, conditions: Tables 8-12, read-out: (f) Ki (human being) [nM] Cap

Row | Ki [nM] | Structure (SMILES)
3 | 12 | COc1cc(C(C)C(=O)NCc2cc(C(F)(F)F)nn2-c2cccc(Cl)c2)ccc1CNS(C)(=O)=O (stereo not shown) [Example B76, N-[[2-(3-Chlorophenyl)-5-(trifluoromethyl)-2H-pyrazol-3-yl]-methyl]-2-[4-(methanesulfonamido-methyl)-3-methoxy-phenyl]-propionamide]
4 | 44 | NS(=O)(=O)NCc1ccc(NC(=O)NCc2cc(C(F)(F)F)nn2-c2cccc(F)c2)cc1 [Example B77, 1-[[2-(3-Fluorophenyl)-5-(trifluoromethyl)-2H-pyrazol-3-yl]-methyl]-3-[4-[(sulfamoylamino)-methyl]-phenyl]-urea]
5 | 21 | NS(=O)(=O)NCc1ccc(NC(=O)NCc2cc(C(F)(F)F)nn2-c2ccc(F)c(Cl)c2)cc1 [Example B78, 1-[[2-(3-Chloro-4-fluoro-phenyl)-5-(trifluoromethyl)-2H-pyrazol-3-yl]-methyl]-3-[4-[(sulfamoylamino)-methyl]-phenyl]-urea]
6 | 2 | CC(C)c1cccc(-n2nc(C(F)(F)F)cc2CNC(=O)Nc2ccc(CNS(N)(=O)=O)cc2)c1 [Example B79, 1-[[2-(3-Isopropyl-phenyl)-5-(trifluoromethyl)-2H-pyrazol-3-yl]-methyl]-3-[4-[(sulfamoylamino)-methyl]-phenyl]-urea]
7 | 2 | CC(C)c1cccc(-n2nc(C(F)(F)F)cc2CNC(=O)Nc2ccc(CNS(N)(=O)=O)c(F)c2)c1 [Example B80, 1-[3-Fluoro-4-[(sulfamoylamino)-methyl]-phenyl]-3-[[2-(3-isopropyl-phenyl)-5-(trifluoromethyl)-2H-pyrazol-3-yl]-methyl]-urea]
8 | 33 | CS(=O)(=O)NCc1ccc(NC(=O)NCc2cc(C(F)(F)F)nn2-c2cccc(Cl)c2)cc1 [Example B81, 1-[[2-(3-Chlorophenyl)-5-(trifluoromethyl)-2H-pyrazol-3-yl]-methyl]-3-[4-(methanesulfonamido-methyl)-phenyl]-urea]
9 | 0.8 | CC(C)c1cccc(-n2nc(C(F)(F)F)cc2CNC(=O)C(C)c2ccc(CNS(C)(=O)=O)c(F)c2)c1 (stereo not shown) [Example B82, 2-[3-Fluoro-4-(methanesulfonamido-methyl)-phenyl]-N-[[2-(3-isopropyl-phenyl)-5-(trifluoromethyl)-2H-pyrazol-3-yl]-methyl]-propionamide]
10 | 3 | CC(C)c1cccc(-n2nc(C(F)(F)F)cc2CNC(=O)Nc2ccc(CNS(C)(=O)=O)cc2)c1 [Example B83, 1-[[2-(3-isopropyl-phenyl)-5-(trifluoromethyl)-2H-pyrazol-3-yl]-methyl]-3-[4-(methanesulfonamido-methyl)-phenyl]-urea]
11 | 53 | CCS(=O)(=O)NCc1ccc(NC(=O)NCc2cc(C(F)(F)F)nn2-c2cccc(Cl)c2)cc1 [Example B84, 1-[[2-(3-Chlorophenyl)-5-(trifluoromethyl)-2H-pyrazol-3-yl]-methyl]-3-[4-[[(ethylsulfonyl)amino]-methyl]-phenyl]-urea]
12 | 16 | CCS(=O)(=O)NCc1ccc(NC(=O)NCc2cc(C(C)(C)C)nn2-c2cccc(Cl)c2)cc1 [Example B85, 1-[[5-tert-Butyl-2-(3-chlorophenyl)-2H-pyrazol-3-yl]-methyl]-3-[4-[[(ethylsulfonyl)amino]-methyl]-phenyl]-urea]
13 | 93 | COc1cc(NC(=O)NCc2cc(C(F)(F)F)nn2-c2cccc(C)c2)ccc1CNS(C)(=O)=O [Example B86, 1-[4-(Methanesulfonamido-methyl)-3-methoxy-phenyl]-3-[[2-(m-tolyl)-5-(trifluoromethyl)-2H-pyrazol-3-yl]-methyl]-urea]
14 | 15 | Cc1cccc(-n2nc(C(F)(F)F)cc2CNC(=O)Nc2ccc(CNS(C)(=O)=O)c(F)c2)c1 [Example B87, 1-[3-Fluoro-4-(methanesulfonamido-methyl)-phenyl]-3-[[2-(m-tolyl)-5-(trifluoromethyl)-2H-pyrazol-3-yl]-methyl]-urea]
15 | 29 | Cc1cccc(-n2nc(C(C)(C)C)cc2CNC(=O)C(C)c2ccc(CNS(C)(=O)=O)c(F)c2)c1 (stereo not shown) [Example B88, N-[[5-tert-Butyl-2-(m-tolyl)-2H-pyrazol-3-yl]-methyl]-2-[3-fluoro-4-(methanesulfonamido-methyl)-phenyl]-propionamide]
16 | 24 | Cc1cccc(-n2nc(C(F)(F)F)cc2CNC(=O)Nc2ccc(CNS(C)(=O)=O)cc2)c1 [Example B89, 1-[4-(Methanesulfonamido-methyl)-phenyl]-3-[[2-(m-tolyl)-5-(trifluoromethyl)-2H-pyrazol-3-yl]-methyl]-urea]
17 | 12 | Cc1cccc(-n2nc(C(C)(C)C)cc2CNC(=O)Nc2ccc(CNS(C)(=O)=O)cc2)c1 [Example B90, 1-[[5-tert-Butyl-2-(m-tolyl)-2H-pyrazol-3-yl]-methyl]-3-[4-(methanesulfonamido-methyl)-phenyl]-urea]
18 | 57 | CCS(=O)(=O)NCc1ccc(NC(=O)NCc2cc(C(F)(F)F)nn2-c2cccc(C)c2)cc1 [Example B91, 1-[4-[[(Ethylsulfonyl)amino]-methyl]-phenyl]-3-[[2-(m-tolyl)-5-(trifluoromethyl)-2H-pyrazol-3-yl]-methyl]-urea]

Further lines, the compound ahead of its results:

Row | Structure (SMILES) | Ki [nM]
19 | NS(=O)(=O)NCc1ccc(NC(=O)NCc2cc(C3CC3)nn2-c2cccc(Cl)c2)cc1F [Example B61, 1-[[2-(3-Chlorophenyl)-5-cyclopropyl-2H-pyrazol-3-yl]-methyl]-3-[3-fluoro-4-[(sulfamoylamino)-methyl]-phenyl]-urea] | 8
20 | NS(=O)(=O)NCc1ccc(NC(=O)NCc2cc(C(F)(F)F)nn2-c2ccc(F)c(F)c2)cc1F [Example B62, 1-[[2-(3,4-Difluoro-phenyl)-5-(trifluoromethyl)-2H-pyrazol-3-yl]-methyl]-3-[3-fluoro-4-[(sulfamoylamino)-methyl]-phenyl]-urea] | 36
21 | CNCc1ccc(C(C)C(=O)NCc2cc(C(C)(C)C)nn2-c2cccc(Cl)c2)cc1F (stereo not shown) [Example B63, N-[[5-tert-Butyl-2-(3-chlorophenyl)-2H-pyrazol-3-yl]-methyl]-2-[3-fluoro-4-(methylamino-methyl)-phenyl]-propionamide] | 30
22 | CC(C(=O)NCc1cc(C(C)(C)C)nn1-c1cccc(Cl)c1)c1ccc(CN(C)C)c(F)c1 (stereo not shown) [Example B64, N-[[5-tert-Butyl-2-(3-chlorophenyl)-2H-pyrazol-3-yl]-methyl]-2-[4-(dimethylaminomethyl)-3-fluoro-phenyl]-propionamide] | 45
23 | CC(=O)NCc1ccc(C(C)C(=O)NCc2cc(C(F)(F)F)nn2-c2cccc(Cl)c2)cc1F (stereo not shown) [Example B66, 2-[4-(Acetylamino-methyl)-3-fluoro-phenyl]-N-[[2-(3-chlorophenyl)-5-(trifluoromethyl)-2H-pyrazol-3-yl]-methyl]-propionamide] | 29
24 | Cc1cccc(-n2nc(C(F)(F)F)cc2CNC(=O)C(C)c2ccc(CNS(C)(=O)=O)c(F)c2)c1 (stereo not shown) [Example B68, 2-[3-Fluoro-4-(methanesulfonamido-methyl)-phenyl]-N-[[2-(m-tolyl)-5-(trifluoromethyl)-2H-pyrazol-3-yl]-methyl]-propionamide] | 4
25 | CC(C)(C)c1cc(CNC(=O)Nc2ccc(CNS(N)(=O)=O)c(F)c2)n(-c2ccc(F)c(F)c2)n1 [Example B69, 1-[[5-tert-Butyl-2-(3,4-difluoro-phenyl)-2H-pyrazol-3-yl]-methyl]-3-[3-fluoro-4-[(sulfamoylamino)-methyl]-phenyl]-urea] | 30
26 | NS(=O)(=O)NCc1ccc(NC(=O)NCc2cc(C(F)(F)F)nn2-c2ccc(F)c(Cl)c2)cc1F [Example B70, 1-[[2-(3-Chloro-4-fluoro-phenyl)-5-(trifluoromethyl)-2H-pyrazol-3-yl]-methyl]-3-[3-fluoro-4-[(sulfamoylamino)-methyl]-phenyl]-urea] | 14
27 | COc1cccc(-n2nc(C(F)(F)F)cc2CNC(=O)Nc2ccc(CNS(N)(=O)=O)c(F)c2)c1 [Example B71, 1-[3-Fluoro-4-[(sulfamoylamino)-methyl]-phenyl]-3-[[2-(3-methoxyphenyl)-5-(trifluoromethyl)-2H-pyrazol-3-yl]-methyl]-urea] | 41
28 | CC(C)(C)c1cc(CNC(=O)Nc2ccc(CNS(C)(=O)=O)c(F)c2)n(-c2ccc(F)c(F)c2)n1 [Example B72, 1-[[5-tert-Butyl-2-(3,4-difluoro-phenyl)-2H-pyrazol-3-yl]-methyl]-3-[3-fluoro-4-(methanesulfonamido-methyl)-phenyl]-urea] | 13
29 | CC(C)c1cccc(-n2nc(C(F)(F)F)cc2CNC(=O)Nc2ccc(CNS(C)(=O)=O)c(F)c2)c1 [Example B73, 1-[3-Fluoro-4-(methanesulfonamido-methyl)-phenyl]-3-[[2-(3-isopropyl-phenyl)-5-(trifluoromethyl)-2H-pyrazol-3-yl]-methyl]-urea] | 3
30 | CC(C)(C)c1cc(CNC(=O)Nc2ccc(CNS(N)(=O)=O)cc2)n(-c2ccc(F)c(F)c2)n1 [Example B74, 1-[[5-tert-Butyl-2-(3,4-difluoro-phenyl)-2H-pyrazol-3-yl]-methyl]-3-[4-[(sulfamoylamino)-methyl]-phenyl]-urea] | 37
31 | NS(=O)(=O)NCc1ccc(NC(=O)NCc2cc(C3CC3)nn2-c2cccc(Cl)c2)cc1 [Example B75, 1-[[2-(3-Chlorophenyl)-5-cyclopropyl-2H-pyrazol-3-yl]-methyl]-3-[4-[(sulfamoylamino)-methyl]-phenyl]-urea] | 19
